Source: US20060159617A1, “Small technetium-99m and rhenium labeled agents and methods for imaging tissues, organs and tumors” (priority 2002, published 2006)

Tests used:
[1] = Determination of lipophilicity and pKa values by HPLC; type: physicochemical; settings: for k' (pH = 7.4): HPLC capacity factor at pH 7.4; for k' (Max): HPLC capacity factor, maximum; for pKa (Corrected): HPLC method, corrected with standard amines
Description: The lipophilicity and pKa values of all complexes were determined using HPLC methods described previously (Stylli, C.; Theobald, A. E. Determination of Ionization Constants of Radiopharmaceuticals in Mixed Solvents by HPLC. Appl. Radiat. Isot., 1987, 38, 701-708; Johannsen, B.; Scheunemann, M.; Spies, H.; Brust, P.; Wober, J.; Syhre, R.; Pietzsch, H.-J. Technetium(V) and Rhenium(V) Complexes for 5-HT2A Serotonin Receptor Binding: Structure-Affinity Considerations. Nucl. Med. Biol., 1996, 23, 429-438; and Johannsen, B.; Berger, R.; Brust, P.; Pietzsch, H.-J.; Scheunemann, M.; Seifert, S.; Spies, H.; Syhre, R. Structural Modification of Receptor-Binding Technetium-99m Complexes in Order to Improve Brain Uptake. Eur. J. Nucl. Med. 1997, 24, 316-319). […] The mobile phase was acetonitrile:phosphate buffer (0.01 M), 3:1, v/v, with the aqueous buffer adjusted to the desired pH between 3 and 11. The capacity factor (k′) was calculated for each determination (Braumann, T.; Grimme, L. H. Determination of Hydrophobic Parameters for Pyridazinone Herbicides by Liquid-Liquid Partition and Reversed-Phase High-Performance Liquid Chromatography. J. Chromatogr. 1981, 206, 7-15; El Tayer, N.; van der Waterbeemd, H.; Testa, B. Lipophilicity Measurements of Protonated Basic Compounds by Reversed-Phase High-Performance Liquid Chromatography. II. Procedure for the Determination of a Lipophilic Index Measured by Reversed-Phase High Performance Liquid Chromatography. J. Chromatogr. 1985, 320, 305-312; and Minick, D. J.; Frenz, J. H.; Patrick, M. A.; Brent, D. A. A Comprehensive Method for Determining Hydrophobicity Constants by Reversed-Phase High-Performance Liquid Chromatography. J. Med. Chem., 1988, 31, 1923-1933) and the partition coefficient at a given pH (D or logD) were calculated from the equation: log D=a log k′+b where the parameters a and b are predetermined using standard amines. The fitted points of inflection from the sigmoidal DHPLC/pH profiles permit calculation of the pKHPLC(Stylli, C.; Theobald, A. E. Determination of Ionization Constants of Radiopharmaceuticals in Mixed Solvents by HPLC. Appl. Radiat. Isot., 1987, 38, 701-708). The aqueous ionization constants pKa were calculated from the pKHPLC values after correction with a predetermined correction factor obtained using standard amine compounds. Log P values of the neutral complexes were estimated from the respective upper plateau of the sigmoidal log D/pH curve in the alkaline range.

σ2 receptor = biological target: T1, σ2 receptor (Rattus norvegicus, UniProt Q5U3Y7); test: σ2 receptor competition binding assay with [3H]-DTG, σ1 masked; settings: apparent Ki, rat liver membranes
T1 construct: Rat liver membranes were prepared from male Sprague-Dawley rat livers as previously described; from tissue; host or cells: male Sprague-Dawley rat liver membranes
T1 sequence (Q5U3Y7 1-176): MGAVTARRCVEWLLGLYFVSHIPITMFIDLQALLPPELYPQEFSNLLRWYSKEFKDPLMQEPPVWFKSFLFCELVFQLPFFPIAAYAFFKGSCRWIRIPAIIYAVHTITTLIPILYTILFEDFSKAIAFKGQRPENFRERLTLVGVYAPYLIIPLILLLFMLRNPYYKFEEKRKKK
Description: Rat liver membranes were prepared from male Sprague-Dawley rat livers as previously described (Eur. J. Pharmacol.—Mol. Pharmacol. Sect. 1994, 268, 9-18). The in vitro σ2 receptor binding affinities of rhenium coordinated complexes were determined in a competition assay using rat livers and [^3H]-DTG (31 Ci/mmol, NEN Life Science Inc., Cambridge, Mass.) as radioligand in the presence of 10 μM 1-pyrrolidinylethyl 3,4-dichlorophenylacetate oxalate (ACT915 oxalate) to mask σ1 receptors (Bioorg. & Med. Chem. Lett. 2000, 10, 17-18). Competition assays were performed with twelve concentrations of the nonradioactive rhenium complexes ranging from 1×10^−10 to 1×10^−3 and protein samples (0.15 mg of membrane protein) in a total volume of 0.25 mL of Tris-HCl (50 mM, pH 8.0) for 120 min at 25° C. All other manipulations and data analysis were performed as described vide supra for the σ1-receptor assays.

| SMILES | k' (pH = 7.4) [1] | k' (Max) [1] | pKa (Corrected) [1] | Ki (σ2 receptor) |
| --- | --- | --- | --- | --- |
| O=C1CN(CCCN2CCC(Cc3ccccc3)CC2)CC[S][Re]2(=[O])[S]CC[N]12 (centres unmarked) [Re-15] | 60 | 160 | 8.34 | 136 ± 22 nM |
| COc1ccccc1C1CCN(CCCN2CC[S][Re]3(=[O])[S]CC[N]3C(=O)C2)CC1 (centres unmarked) [Re-16] | 57 | 117 | 8.09 | 336 ± 70 nM |
